In patent US20190119300A1, “SUBSTITUTED AND FUSED 6-MEMBERED PROTEASE ACTIVATED RECEPTOR 4 (PAR-4) ANTAGONISTS” (Vanderbilt University, priority 2016, published 2019) one finds remaining activity and IC50 data, which are given here for 52 compounds.

The target in assay [1] is T1, PAR-4 (Homo sapiens, UniProt Q96RI0).
T1 construct: endogenous in cells; host or cells: washed platelets
T1 sequence (Q96RI0 18-385): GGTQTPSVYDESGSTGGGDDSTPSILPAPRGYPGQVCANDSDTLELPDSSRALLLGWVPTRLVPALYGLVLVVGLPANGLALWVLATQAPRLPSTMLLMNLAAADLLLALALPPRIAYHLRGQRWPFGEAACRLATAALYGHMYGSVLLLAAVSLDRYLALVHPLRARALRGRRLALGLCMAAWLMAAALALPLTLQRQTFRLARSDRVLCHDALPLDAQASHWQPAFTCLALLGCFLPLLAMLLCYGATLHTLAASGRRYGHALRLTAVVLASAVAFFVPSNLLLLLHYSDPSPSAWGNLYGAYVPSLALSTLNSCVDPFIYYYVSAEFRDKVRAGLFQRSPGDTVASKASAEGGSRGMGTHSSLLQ
Briefly: PAC-1 binding assay, washed platelets stimulated with PAR-4-AP (flow cytometry). The assay is classed as cell-based. The settings on record: PAR-4-AP stimulation; for remaining activity at 10 µM: 10 μM antagonist, 100% = DMSO control stimulated, read-out: PAR-4 AP % Max PAC-1 binding (10 μM); for IC50: read-out: PAR-4 AP % Max PAC-1 binding (IC50 [M]). As to the method:
(§1) PAC-1 Binding assay: 60 μL of washed platelets (Tyrodes buffer containing 0.1% BSA) at a concentration of 0.15×10^8 platelets/mL were added to 5 mL round bottom polystyrene tubes (BD, Franklin Lakes, N.J.). FITC conjugated PAC-1 (BD Biosciences, San Jose, Calif.) antibody was diluted (to the manufacturers recommended concentration) in Tyrode's buffer containing 0.1% BSA. 40 μL of diluted antibody was added to the platelets and allowed to incubate for 5 minutes. Platelets were pre-treated with indicated concentrations of antagonist or DMSO control for 20 minutes (the final DMSO concentration was 0.5%) followed by addition of PAR-1-AP (GL Biochem, Shanghai, China), PAR-4-AP, or gamma-thrombin for 10 minutes. Platelet activity was quenched by the addition ice cold 1.5% paraformaldehyde followed by dilution in 1× phosphate buffered saline. Platelets were stored up to 18 hours at 4° C. before flow cytometric analysis. Analysis was carried out on a BD FACS Canto II or BD LSRII (Franklin Lakes, N.J.). Fluorescent intensity was determined for at least 20,000 events within the platelet gate (forward scatter versus side scatter). Data was collected and analyzed via FACS DiVa or FlowJo software. Flow cytometric data analysis was conducted by the following method. The DMSO-vehicle treated control was subtracted from each data point. 100% response for PAR-4-AP was determined for each individual as the DMSO treated control stimulated with PAR-4-AP, PAR-1-AP, or gamma-thrombin. Data was plotted in GraphPad PRISM v.5.0. For compounds with a notable reduction in PAC-1 binding response, dose response curves and IC50 values were generated using the inhibitory sigmoidal dose response ‘variable slope’ parameter. Results were plotted as mean±SEM.

The target of assay [2] is T1, PAR-4. In words: PAC-1 binding assay, washed platelets stimulated with 100 nM gamma-thrombin (flow cytometry). The settings on record: 100 nM γ-thrombin stimulation. Type of assay: cell-based.
Description: Gamma-thrombin is a proteolytic product of alpha-thrombin cleavage by a serine protease. Cleavage results in the disruption of exosite I which interacts directly with the hirudin-like domain of its primary substrates fibrinogen and protease-activated receptor 1 (PAR1). […] See Soslau, G., Class, R., Morgan, D. A., Foster, C., Lord, S. T., Marchese, P., and Ruggeri, Z. M. (2001) Unique pathway of thrombin-induced platelet aggregation mediated by glycoprotein Ib, The Journal of biological chemistry 276, 21173-21183. Gamma-thrombin (Enzyme Research Laboratories, South Bend, Indiana) is produced by trypsin-sepharose cleavage of alpha-thrombin. To neutralize alpha-thrombin contamination, stock solutions of gamma-thrombin are preincubated with 1 unit/mL hirudin prior 100 fold dilution into the sample for platelet stimulation. […] Single point screens and concentration response curves are conducted with 316 nanomolar or 100 nanomolar gamma-thrombin using PAC1 and CD62p binding.
as §1

On to `COc1nn2cc(-c3ccc(OC(F)(F)F)cc3)nc2s1` [Example B27], for which the remaining activity at 10 µM in assay [1] is -0.2%.
On the same count and under the same terms, for `COc1nn2cc(-c3ccc(C(F)(F)F)cc3)nc2s1` [Example B1] the value was -1.91%.
As to `COc1nn2cc(-c3ccccc3[N+](=O)[O-])nc2s1` [Example B49], in assay [1], the remaining activity at 10 µM amounted to 17.1% and the IC50 is more than 1e-06 M.
For `FC(F)(F)c1ccc(-c2cn3nc(OC4CCCC4)sc3n2)cc1` [Example B42], in assay [1], the remaining activity at 10 µM amounted to 114%.
`COc1nn2cc(-c3ccc(-c4ccccc4)cc3)nc2s1` [Example B51]: the remaining activity at 10 µM in assay [1] was found to be 72.7%.
With `COc1nn2cc(-c3ccccc3OCc3csc(-c4ccccc4)n3)nc2s1` [Example B48], the remaining activity at 10 µM in assay [1] turned out to be 96%.
With `COc1nn2cc(-c3ccccc3Cl)nc2s1` [Example B21], in assay [1], the remaining activity at 10 µM worked out at 0.74% and the IC50 came to 4.54e-07 M.
In the case of `CC(C)Oc1nn2cc(-c3ccc(C(F)(F)F)cc3)nc2s1` [Example B40], the remaining activity at 10 µM in assay [1] was found to be 81.5%.
Turning to `COc1nn2cc(-c3ccccn3)nc2s1` [Example B18], in assay [1], the remaining activity at 10 µM was determined as 18.6% and the IC50 was 2.22e-05 M.
For `CC(C)Oc1nn2cc(-c3c(F)cccc3F)nc2s1` [Example B33], the remaining activity at 10 µM in assay [1] was 102%.
Take `COc1nn2cc(-c3ccc4ncn(C)c4c3)nc2s1` [Example B45]: in assay [1], the remaining activity at 10 µM turned out to be 48.1%.
On the same count and under the same terms, the value for `COc1nn2cc(-c3ccc(O)cc3)nc2s1` [Example B16] was 91.2%.
In the case of `COc1nn2cc(-c3ccccc3)nc2s1` [Example B8], in assay [1], the remaining activity at 10 µM stood at 1.48% and the IC50 stood at 7.08e-07 M.
As to `CC(C)COc1nn2cc(-c3ccc(C(F)(F)F)cc3)nc2s1` [Example B41], in assay [1], the remaining activity at 10 µM was found to be 102%.
Turning to `COc1nn2cc(-c3ccc(O)cc3O)nc2s1` [Example B13], the remaining activity at 10 µM in assay [1] amounted to 98.4%.
On to `COc1nn2cc(-c3ccc(Cl)c([N+](=O)[O-])c3)nc2s1` [Example B26], for which, in assay [1], the remaining activity at 10 µM was found to be 1.52% and the concentration for half-maximal inhibition (IC50) is 9.95e-08 M.
On the same counts, the results for `CCOc1nn2cc(-c3cccc(Cl)c3)nc2s1` [Example B35] are 2.31% and 1.24e-06 M.
Turning to `COc1nn2cc(-c3ccccc3O)nc2s1` [Example B14], the remaining activity at 10 µM in assay [1] stood at 92.7%.
Consider `COc1nn2cc(-c3cc(C(F)(F)F)cc(C(F)(F)F)c3)nc2s1` [Example B25], for which, in assay [1], the remaining activity at 10 µM was -0.34% and the IC50 came out at 5.23e-08 M. For the same compound, the IC50 in assay [2] was more than 1000 nM.
In the case of `COc1ccc(-c2cn3nc(OC)sc3n2)cc1` [Example B10], in assay [1], the remaining activity at 10 µM was -1.59% and the IC50 was determined as 6.25e-07 M.
`COc1nn2cc(-c3ccc(OC(F)F)cc3)nc2s1` [Example B28]: the remaining activity at 10 µM in assay [1] was -0.21%. The IC50 in assay [1] is 8.34e-08 M; in assay [2], more than 1000 nM.
Take `COc1nn2cc(-c3ccc4sccc4c3)nc2s1` [Example B54]: in assay [1], the remaining activity at 10 µM came out at 20.7% and the half-inhibitory concentration (IC50) was 7.75e-08 M. For the same compound, in assay [2], the IC50 was more than 1000 nM.
Consider `COc1nn2cc(-c3ccccc3OC)nc2s1` [Example B15], for which, in assay [1], the remaining activity at 10 µM was 8.45% and the concentration for half-maximal inhibition (IC50) stood at 3.95e-06 M.
`COc1nn2cc(-c3cccnc3)nc2s1` [Example B22]: the remaining activity at 10 µM in assay [1] was found to be 81.3%.
As to `COc1nn2cc(-c3ccc([N+](=O)[O-])cc3)nc2s1` [Example B31], in assay [1], the remaining activity at 10 µM was 1.6% and the IC50 worked out at 2.07e-07 M.
The like results for `CCOc1nn2cc(-c3ccc(C(F)(F)F)cc3)nc2s1` [Example B39] were, in that order, 2.21% and 6.48e-07 M.
Regarding `COc1nn2cc(-c3ccc(C)cc3)nc2s1` [Example B12, 2-methoxy-6-(p-tolyl)imidazo[2,1-b][1,3,4]thiadiazole], in assay [1], the remaining activity at 10 µM came to 1.78% and the IC50 amounted to 5.2e-08 M. For the same compound, the IC50 in assay [2] is more than 1000 nM.
For `COc1nn2cc(-c3cccc([N+](=O)[O-])c3)nc2s1` [Example B50], in assay [1], the remaining activity at 10 µM turned out to be 6.82% and the IC50 is more than 1e-06 M.
As to `COc1nn2cc(-c3ccccc3C(F)(F)F)nc2s1` [Example B2], in assay [1], the remaining activity at 10 µM was -0.14% and the IC50 was determined as 1.33e-06 M.
On the same counts, the results for `COc1nn2cc(-c3ccc(Br)cc3F)nc2s1` [Example B6] are 2.82% and 1.96e-07 M.
In the case of `COc1nn2cc(-c3ccc(Cl)c(Cl)c3)nc2s1` [Example B20], in assay [1], the remaining activity at 10 µM is -0.92%.
The same measure, in the same setting: for `CC(C)COc1nn2cc(-c3cccc(Cl)c3)nc2s1` [Example B37] the value was 97.3%.
Consider `COc1cccc(-c2cn3nc(OC)sc3n2)c1` [Example B53], for which, in assay [1], the remaining activity at 10 µM is -0.071% and the IC50 was found to be 2.91e-07 M.
For `COc1nn2cc(-c3ccccc3F)nc2s1` [Example B30], in assay [1], the remaining activity at 10 µM was -0.14% and the IC50 stood at 5.26e-07 M.
In the case of `COc1nn2cc(-c3ccc(-c4cccs4)cc3)nc2s1` [Example B24], in assay [1], the remaining activity at 10 µM stood at 3.35% and the IC50 was 1.63e-07 M.
Regarding `COc1nn2cc(-c3ccc(F)cc3F)nc2s1` [Example B5], in assay [1], the remaining activity at 10 µM is 0.21% and the half-inhibitory concentration (IC50) came out at 1.75e-07 M.
As to `COc1nn2cc(-c3ccc(S(C)(=O)=O)cc3)nc2s1` [Example B11], in assay [1], the remaining activity at 10 µM was determined as 4.19% and the IC50 turned out to be 1.09e-06 M.
In the case of `COc1nn2cc(-c3ccc(N4CCOCC4)cc3)nc2s1` [Example B46], the remaining activity at 10 µM in assay [1] worked out at 10.4%.
Turning to `Fc1cccc(F)c1-c1cn2nc(OC3CCCC3)sc2n1` [Example B34], in assay [1], the remaining activity at 10 µM was determined as 109%.
As for `COc1nn2cc(-c3ccc(Oc4ccccc4)cc3)nc2s1` [Example B9], in assay [1], the remaining activity at 10 µM was -0.09% and the IC50 worked out at 1.43e-07 M.
With `CC(C)Oc1nn2cc(-c3cccc(Cl)c3)nc2s1` [Example B36], the remaining activity at 10 µM in assay [1] stood at 63.2%.
As for `COc1nn2cc(-c3ccc(F)cc3)nc2s1` [Example B52], in assay [1], the remaining activity at 10 µM was 0.063% and the IC50 is 4.06e-07 M.
In the case of `Clc1cccc(-c2cn3nc(OC4CCCC4)sc3n2)c1` [Example B38], the remaining activity at 10 µM in assay [1] worked out at 99.5%.
For the compound `CC(C)COc1nn2cc(-c3c(F)cccc3F)nc2s1` [Example B44], the remaining activity at 10 µM in assay [1] is 93.7%.
Regarding `COc1nn2cc(-c3ccc(C#N)cc3)nc2s1` [Example B17], in assay [1], the remaining activity at 10 µM is 0.93% and the IC50 is 8.95e-07 M.
With `COc1nn2cc(-c3cccc(C(F)(F)F)c3)nc2s1` [Example B3], the remaining activity at 10 µM in assay [1] is -0.26%.
On to `COc1nn2cc(-c3c(F)cccc3F)nc2s1` [Example B4], for which the remaining activity at 10 µM in assay [1] came out at 1.29%.
In the case of `COc1nn2cc(-c3ccc(OCc4csc(-c5ccccc5)n4)cc3)nc2s1` [Example B43, 2-Methoxy-6-(4-((2-phenylthiazol-4-yl)methoxy)phenyl)imidazo[2,1-b][1,3,4]thiadiazole], in assay [1], the remaining activity at 10 µM worked out at 0.91% and the IC50 was found to be 1.33e-06 M.
Consider `COc1nn2cc(-c3ccc(F)c(C(F)(F)F)c3)nc2s1` [Example B29], for which, in assay [1], the remaining activity at 10 µM was -0.45%.
Same read-out and setting: for `COc1nn2cc(-c3ccc(Cl)cc3)nc2s1` [Example B19] the value was 0.02%.
As to `COc1nn2cc(-c3cccc(F)c3)nc2s1` [Example B7], in assay [1], the remaining activity at 10 µM amounted to 1.47% and the IC50 is 6.85e-07 M.
As to `CCOc1nn2cc(-c3c(F)cccc3F)nc2s1` [Example B32], in assay [1], the remaining activity at 10 µM turned out to be 3.47% and the IC50 is 1.17e-06 M.
